Measured values published in patent US20090286839A1, “PHYTONUTRIENT COMPOSITIONS FROM MUSHROOMS OR FILAMENTOUS FUNGI AND METHODS OF USE” (priority 2006, published 2009).

How the values were obtained:
[1] = Hydrophilic ORACFL assay (ORAChydro); type: biochemical; details: pure ERG
Text: The lipophilic ORACFL assay (ORAClipo) was based on a previous reported method. Hydrophilic ORACFL assay (ORAChydro) was based on a previous reported method. All data was expressed as micromoles of Trolox equivalents (TE) per gram of dry weight (μmol TE/g dw). The freeze-dried forms of the mushrooms were used for testing and the data was reported as dry weight. When reporting amount per serving, the data was converted to a fresh weight basis according to the dry weight of the fresh mushroom samples. For each analysis, triplicate extractions were performed from one crop and used for analysis. ORACtotal was determined by calculating the sum of ORAClipo and ORAChydro results.

[2] = Hydroxyl radical averting capacity (HORAC) assay; type: biochemical; details: pure ERG
Text: The HORAC assay was based on a previously reported method, however caffeic acid (CA) was used as the standard due to CA providing a wider linear range as compared to gallic acid. All data was expressed as micromoles of caffeic acid equivalents (CAE) equivalents per gram of dry weight (μmol CAE/g dw). The freeze-dried forms of the mushrooms were used for testing and the data was reported as dry weight. When reporting amount per serving, the data was converted to a fresh weight basis according to the dry weight of the fresh mushroom samples. For each analysis, triplicate extractions were performed from one crop and used for analysis.
HO. radicals are highly reactive and can be generated via the Fenton reaction. Due to the fact that HO. radicals are short lived with a high rate constant, it is unlikely that antioxidants present at biological concentrations will be able to scavenge the HO radical. However antioxidants, which are able to act as metal chelators, may be able to prevent the formation of the HO. radical, thus acting as a preventative antioxidant. The HORAC assays measures the ability of the antioxidant present to chelate Co(II) prior to the Fenton reaction cocurring. HORAC values ranged between 3.0-13.6 μmole CAE/g dw. There was a significant difference found within the different A. bisporus mushrooms. […]

[3] = Peroxynitrite radical averting capacity (NORAC) assay; type: biochemical; details: pure ERG
Method: The NORAC assay was modified on a previously reported method. All data was expressed as micromoles of Trolox equivalents (TE) equivalents per gram of dry weight (μmol of TE/g dw). The freeze-dried forms of the mushrooms were used for testing and then the data was converted to a FW basis according to the dry weight of the fresh mushroom samples, which were obtained from one crop. For each analysis, triplicate extractions were performed and used for analysis.
Under physiological conditions, the formation of ONOO^− can easily result due to the cellular production and interaction of nitric oxide and superoxide radicals. Damage to protein, especially aromatic compounds can result from ONOO^−. A limited number of papers have been published regarding the antioxidant capacity against ONOO^−. The NORAC assay is a relatively new assay. SIN-1 is used in the NORAC assay, which when heated decomposes to produce ONOO^−. DHR-123 (non-fluorescent) is used as the probe, which becomes oxidized by the presence of ONOO^− to become rhodamine 123 (fluoresces). If antioxidants present in the sample are able to scavenge ONOO^−, a delay in fluorescence will occur due to the protection of the probe offered by the antioxidant. Generally, compounds that can scavenge ONOO^− will provide high NORAC values. […]

[4] = Super-oxide radical averting capacity (SORAC) assay; type: biochemical; details: pure ERG
Text: SORAC assays were based on the previously described method by Zhao and coworkers. Simply, hydroethidine was used as a probe in measuring O2^− scavenging capacity. […] Addition of SOD inhibits the hydroethidine oxidation. All data was expressed as superoxide equivalents per gram of dry weight (kunitSOD eq/g dw). The freeze-dried forms of the mushrooms were used for testing and the data was reported as dry weight. When reporting amount per serving, the data was converted to a fresh weight basis according to the dry weight of the fresh mushroom samples. For each analysis, triplicate extractions from one crop were performed and used for analysis.
Another biological relevant free radical is O2^− which is less reactive than HO., however O2^− does react very quickly with certain radicals, such as nitric oxide. The SORAC assay is a newly developed assay. Hydroethidine (nonfluorescent) is used as the probe, which is oxidized (fluoresces) in the presence of O2^− that is generated from a xanthine and xanthine oxidase mixture. If antioxidants present in the sample are able to scavenge O2^−, a delay in fluorescence will occur due to the protection of the probe offered by the antioxidant. Generally, compounds that can scavenge O2^− will provide high SORAC values. […]

[5] = tested on: cortical neurons; test: 2% Low Serum Assay, neuronal viability by MTT method; type: cell-based, chicken
Method: Lohman or Hisex Brown chicken one-day-old fertilized eggs were obtained and stored in a lab under appropriate conditions of 12° C. and 80% humidity. At embryonic day 0 eggs were transferred into a breeding incubatore and stored under permanent turning until embryonic day 9 at 37.8° C. and 55% humidity. For isolation of neurons 4 to 6 chicken embryos were used per experiment. Neurons were plated out and nerve cells maintained in a nutrition medium at 37° C., 97% humidity, and 5% CO2.
Test Item (T.I.) and Reference Item (R.I.) were administered at the start of the experiments for 8 days. Neurons were maintained in the same medium without change or addition of media until the end of the experiments. During the whole culture period of 8 days cells stay in an incubator at 37° C., 97% humidity, and 5% CO2.
From T.I.1, L-Ergothioneine a 128 mM solution was prepared in medium and directly added to the cells at the start of the experiments for a total of 8 days. […] The pellet was discarded and only from the supernatant 1.25 μl up to 160 μl/ml medium was administered. R.I.2. the neurotrophic standard NTS is a ready to use injection solution and was applied in concentrations from 1.25 μl up ro 160 μl/ml medium. The stock-solution for R.I.3, Trolox, was made in a concentration of 2 mM in PBS and the appropriate concentrations added to the cells at day 1.
To the isolated nerve cell T.I.1 was added in a dose range of 0.5, 1, 2, 4, 8, 16, 32, 64 mM. The supernatant of R.I.1 and the ready to use injection solution of R.I.2 were applied in the concentration 1.25, 2.5, 5, 10, 20, 40, 80, 160 μl/ml medium. R.I.3 was tested in the concentrations of 1, 2, 4, 8, 16, 31.25, 62.5, 125 μM. Experiments were performed at two different days, whereby on each day two identical microplates were prepared with two to four wells per T.I. or R.I. (n=8). In this 2% cell stress assay substances were administered at start of the experiment (day 1 in vitro) for the whole experimental period that means for eight days in vitro.
Neuronal viability of cultures was determined with the MTT-assay using a plate-reader (570 nm) as described in SOP MET009. The MTT-assay is a sensitive assay measuring the mitochondrial dehydrogenase activity in viable cells only. It is performed according to the method described by Mosmann, J. Immunol. Meth., 1983, 55-63. This assay is based on the reduction of yellow MTT (3-(4,5-dimethylthiazol-2-yl)-2,5,diphenyl tetrazolium bromide), to dark blue formazan crystals by mitochondrial dehydrogenases (succinate dehydrogenase). Since this reaction is catalyzed in living cells only the assay can be used for the quantification of cell viability.
For the determination of cell viability MTT solution was added to each well in a final concentration of 0.5 mg/ml. After 2 hours the MTT containing medium was aspired. Cells were lysed with 3% SDS, formazan crystals dissolved in isopropanol/HCI. To estimate optical density a plate reader (Anthos HT II) was used at wavelength 570 nm. Neuronal viability is expressed as optical densities (ODs).

[6] = cited from earlier work
[7] = 0.5 mM, addition at 1DIV, 8 days, n=8
[8] = 1 mM, addition at 1DIV, 8 days, n=8
[9] = 2 mM, addition at 1DIV, 8 days, n=8
[10] = 4 mM, addition at 1DIV, 8 days, n=8
[11] = 8 mM, addition at 1DIV, 8 days, n=8
[12] = 16 mM, addition at 1DIV, 8 days, n=8
[13] = 32 mM, addition at 1DIV, 8 days, n=8
[14] = 64 mM, addition at 1DIV, 8 days, n=8
[15] = Lohman or Hisex Brown, chicken, 8 days
[16] = Gallus gallus, Cortical neurone, 192 h, read-out: viability, mean in % (control is 100%)

Structure (SMILES): C[N+](C)(C)[C@@H](Cc1c[nH]c(=S)[nH]1)C(=O)[O-] [Ergo, L-ergothioneine]
- ORAChydro value of ERG [1]: 6,440 μmole TE/g
- HORAC value of ERG [2]: 231 μmole CAE/g
- NORAC value of ERG [3]: 407 μmole TE/g
- SORAC value of ERG [4]: non-detectable
- viability, mean in % (control is 100%) [5, 7]: 98.13%
- viability, mean optical density [5, 7]: 0.053 OD
- viability, mean in % (control is 100%) [5, 8]: 104.42%
- viability, mean optical density [5, 8]: 0.057 OD
- viability, mean in % (control is 100%) [5, 9]: 105.10%
- viability, mean optical density [5, 9]: 0.057 OD
- viability, mean in % (control is 100%) [5, 10]: 110.39%
- viability, mean optical density [5, 10]: 0.060 OD
- viability, mean in % (control is 100%) [5, 11]: 119.84%
- viability, mean optical density [5, 11]: 0.065 OD
- viability, mean in % (control is 100%) [5, 12]: 189.48%
- viability, mean optical density [5, 12]: 0.103 OD
- viability, mean in % (control is 100%) [5, 13]: 262.66%
- viability, mean optical density [5, 13]: 0.153 OD
- viability, mean in % (control is 100%) [5, 14]: 407.45%
- viability, mean optical density [5, 14]: 0.221 OD
- neuroprotective concentration range ([5]; 2% low serum, 8 days, MTT): ≥ 4 mM
- maximum neuronal viability (% of untreated control) ([5]; 2% low serum, 8 days, MTT, best concentration tested): 407%
- solubility in nonpolar solvents ([6]; nonpolar solvents): insoluble
- water soluble up to ([6]; water, room temperature): up to 0.9 M

Structure (SMILES): COc1c(O)cc2oc3cc(O)c(CC=C(C)C)c(O)c3c(=O)c2c1CC=C(C)C [Mangostin]
- viability, mean optical density ([5]; 1.25 μl/ml, addition at 1DIV, 8 days, n=8): 0.051 OD
- viability, mean optical density ([5]; 2.5 μl/ml, addition at 1DIV, 8 days, n=8): 0.052 OD
- viability, mean optical density ([5]; 5 μl/ml, addition at 1DIV, 8 days, n=8): 0.053 OD
- viability, mean optical density ([5]; 10 μl/ml, addition at 1DIV, 8 days, n=8): 0.076 OD
- viability, mean optical density ([5]; 20 μl/ml, addition at 1DIV, 8 days, n=8): 0.064 OD
- viability, mean optical density ([5]; 40 μl/ml, addition at 1DIV, 8 days, n=8): 0.057 OD
- viability, mean optical density ([5]; 80 μl/ml, addition at 1DIV, 8 days, n=8): 0.059 OD
- viability, mean optical density ([5]; 160 μl/ml, addition at 1DIV, 8 days, n=8): 0.065 OD
- maximum neuronal viability (% of untreated control) [5, 15]: 155%
- viability, mean in % (control is 100%) ([5]; Lohman or Hisex Brown, chicken, 8 days, 1.25 μl/ml): 93.86%
- viability, mean in % (control is 100%) ([5]; Lohman or Hisex Brown, chicken, 8 days, 2.5 μl/ml): 95.97%
- viability, mean in % (control is 100%) ([5]; Lohman or Hisex Brown, chicken, 8 days, 5 μl/ml): 98.32%
- viability, mean in % (control is 100%) ([5]; Lohman or Hisex Brown, chicken, 8 days, 10 μl/ml): 142.18%
- viability, mean in % (control is 100%) ([5]; Lohman or Hisex Brown, chicken, 8 days, 20 μl/ml): 155.61%
- viability, mean in % (control is 100%) ([5]; Lohman or Hisex Brown, chicken, 8 days, 80 μl/ml): 109.66%
- viability, mean in % (control is 100%) ([5]; Lohman or Hisex Brown, chicken, 8 days, 160 μl/ml): 120.33%

Structure (SMILES): Cc1c(C)c2c(c(C)c1O)CCC(C)(C(=O)O)O2 (stereo not drawn) [Trolox, 6-Hydroxy-2,5,7,8-tetramethylchroman2-carboxylic acid]
- viability, mean optical density ([5]; 1 μM, addition at 1DIV, 8 days, n=8): 0.052 OD
- viability, mean optical density ([5]; 2 μM, addition at 1DIV, 8 days, n=8): 0.056 OD
- viability, mean optical density ([5]; 4 μM, addition at 1DIV, 8 days, n=8): 0.058 OD
- viability, mean optical density ([5]; 8 μM, addition at 1DIV, 8 days, n=8): 0.076 OD
- viability, mean optical density ([5]; 16 μM, addition at 1DIV, 8 days, n=8): 0.180 OD
- viability, mean optical density ([5]; 31.25 μM, addition at 1DIV, 8 days, n=8): 0.297 OD
- viability, mean optical density ([5]; 62.5 μM, addition at 1DIV, 8 days, n=8): 0.338 OD
- viability, mean optical density ([5]; 125 μM, addition at 1DIV, 8 days, n=8): 0.262 OD
- viability at 1 µM [5, 16]: 97.8%
- viability at 2 µM [5, 16]: 102%
- viability at 4 µM [5, 16]: 107%
- viability at 8 µM [5, 16]: 140%
- viability at 16 µM [5, 16]: 331%
- viability at 31.25 µM [5, 16]: 546%
- viability at 62.5 µM [5, 16]: 620%
- viability at 125 µM [5, 16]: 482%
- maximum neuronal viability (% of untreated control) [5, 15]: 620%
